Where a name gives a salt, the structure may show the parent alone.

What is called IC50 is the concentration at which inhibition is half-maximal. The low end stands for greater potency in that assay, the high end for weaker potency in that assay.

For this test, the target named is Pdr5 (Saccharomyces cerevisiae, UniProt P33302, A666G). The experiment in a line: inhibition of R6G transport in whole cells. It counts as cell-based.
Pdr5, sequence (P33302 whole entry A666G): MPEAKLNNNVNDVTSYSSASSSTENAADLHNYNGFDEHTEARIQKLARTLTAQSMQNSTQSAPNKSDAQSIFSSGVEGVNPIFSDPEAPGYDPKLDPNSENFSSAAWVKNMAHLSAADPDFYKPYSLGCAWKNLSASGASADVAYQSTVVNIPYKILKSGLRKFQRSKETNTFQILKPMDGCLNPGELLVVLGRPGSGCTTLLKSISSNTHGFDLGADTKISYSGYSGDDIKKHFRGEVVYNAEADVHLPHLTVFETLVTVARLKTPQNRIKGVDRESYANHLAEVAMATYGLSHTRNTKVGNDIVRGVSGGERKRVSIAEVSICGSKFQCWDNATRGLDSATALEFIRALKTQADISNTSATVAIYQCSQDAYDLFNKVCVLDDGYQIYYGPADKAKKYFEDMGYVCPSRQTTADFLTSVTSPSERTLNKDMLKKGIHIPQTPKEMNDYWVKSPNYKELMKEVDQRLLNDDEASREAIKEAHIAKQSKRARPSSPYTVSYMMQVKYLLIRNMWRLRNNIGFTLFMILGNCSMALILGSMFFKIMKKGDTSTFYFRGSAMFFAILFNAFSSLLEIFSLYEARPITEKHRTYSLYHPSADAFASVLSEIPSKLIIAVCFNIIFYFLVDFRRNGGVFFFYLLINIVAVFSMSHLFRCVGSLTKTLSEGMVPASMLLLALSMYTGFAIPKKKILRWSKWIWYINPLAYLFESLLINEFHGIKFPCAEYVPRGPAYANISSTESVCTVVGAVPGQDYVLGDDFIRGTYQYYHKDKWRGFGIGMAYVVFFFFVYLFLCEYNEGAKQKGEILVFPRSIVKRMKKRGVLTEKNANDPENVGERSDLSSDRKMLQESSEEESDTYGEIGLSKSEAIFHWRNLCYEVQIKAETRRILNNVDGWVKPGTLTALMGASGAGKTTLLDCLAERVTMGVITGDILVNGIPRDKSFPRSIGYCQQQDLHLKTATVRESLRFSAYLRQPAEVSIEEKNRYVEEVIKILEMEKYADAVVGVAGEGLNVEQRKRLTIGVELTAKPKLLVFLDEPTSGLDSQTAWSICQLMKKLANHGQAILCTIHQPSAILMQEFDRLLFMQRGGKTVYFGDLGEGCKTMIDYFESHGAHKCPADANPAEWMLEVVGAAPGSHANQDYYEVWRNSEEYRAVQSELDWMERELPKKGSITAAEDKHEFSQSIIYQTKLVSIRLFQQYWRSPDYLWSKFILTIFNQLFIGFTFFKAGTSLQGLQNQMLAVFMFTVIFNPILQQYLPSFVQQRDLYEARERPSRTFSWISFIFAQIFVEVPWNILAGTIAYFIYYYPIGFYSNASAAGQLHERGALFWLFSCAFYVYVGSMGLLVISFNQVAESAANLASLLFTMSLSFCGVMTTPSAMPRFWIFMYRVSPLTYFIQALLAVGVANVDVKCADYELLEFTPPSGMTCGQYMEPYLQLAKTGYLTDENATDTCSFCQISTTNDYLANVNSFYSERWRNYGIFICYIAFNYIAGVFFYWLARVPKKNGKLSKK

The compound `C=CCOC(Cn1ccnc1)c1ccc(Cl)cc1Cl` (stereo not shown) [imazalil sulfate] displayed a concentration for half-maximal inhibition (IC50) of approximately 100 µM.

Values taken from publication PMC6800772 (Molecular microbiology, 2019).
